Counter-ions that a name gives are not always drawn. Like-named read-outs stand apart in the source and are kept apart here.
Assays:
Enterococcus faecalis = test: Antibiotic assay (resazurin, Example 1), Enterococcus faecalis; type: cell-based; conditions: Enterococcus faecalis
Protocol: (§1) Bacteria Strain. […] The MRSA were obtained as further described below.
(§2) Antibiotic agents. Cyprofloxacin and erythromycin were provided by Sigma-Aldrich. Gentamicin sulfate and vancomycin hydrochloride were provided by Calbiochem.
(§3) Five additional strains were tested: Streptococcus pneumoniae, Streptococcus agalactiae, Streptococcus pyogenes, Enterococcus faecalis and Corynebacterium jeikeium.

S. epidermidis = test: Antibiotic assay (resazurin, Example 1), S. epidermidis strains; conditions: Staphylococcus epidermidis
[1] = system: methicillin-resistant Staphylococcus aureus (MRSA) strains; test: Antibiotic assay (resazurin, Example 1), MRSA strains; type: cell-based; conditions: Staphylococcus aureus, MRSA
From the text: as §1, §2
Isolation and identification of methicillin-resistant Staphylococcus aureus (MRSA) strains. From March 2007 to March 2008, 35 screening swabs from nares (n=31), throat (n=3), Groin pus (n=1) were obtained from patients hospitalized at Chicoutimi hospital. Identification of S. aureus was performed using the Slidex Staph-Kit (bioMerieux Vitek, Inc., Hazelwood, Mo.) according to the manufacturer's instructions. Quality control was performed with MRSA strain ATCC 43300 and S. aureus strain ATCC 25923. In addition, S. aureus profile was determined with API Staph test strip with bacterial suspension of saline McFarland of 0.5 (bioMerieux, Durham, N.C.) according to the manufacturer's protocol. API Staph strips were held for 24 h before the results were read. A latex agglutination (SLIDEX) test detecting methicilin resistance in Staphylococci based on the production of low-affinity PBP2a, which is encoded by the mecA gene was performed on all strains. An antibiogram was also performed to confirm the identification of MRSA strains using disk diffusion test.
Antibiotic susceptibility testing using disk diffusion method. The antimicrobial activity of different classes of antibiotics of the potential MRSA was determined by diffusion method (Kirby-Bauer) as described by NCCLS. The antibiotics tested included: penicillin (10 units), amoxicillin/clavulanic acid (20/10 μg), ciprofloxacin (5 μg), moxifloxacin (5 μg), levofloxacin (5 μg), clindamycin (15 μg), erythromycin (15 μg), cefoxitin (30 μg), linezolid (30 μg), trimethoprim/sulfomethoxazole (1.25/23.75 μg), rifampicin (5 μg), gentamicin (10 μg) and vancomycin (30 μg). The agar medium had pH 7.2 to 7.4 before inoculing potentiel MRSA. The antibiotics were maintained at 8° C. or lower −14° C. according to manufacturer's recommendations. The pure culture was inoculated on a non-selective plate for 18-24 h. Each colony was collected with a wire loop and transfered the growth to a tube containing 4 to 5 mL of a tryptic-soy broth. The inoculum density was standarized with BaSO4 using 0.5 McFarland standard. All strains were incubated at 37° C. until it achieves or exceeds the turbidity of 0.5 McFarland standard. Inoculation of the dried surface (Muller-Hinton agar plate) by streaking the swab over the entire sterile agar surface. This procedure was repeated two more times. After 15 min, the appropriate disk were applied on the surface with a sterile forceps. The inverted plates was placed in a incubator at 37° C./air/16 to 18 h or 24 h for vancomycin. The inhibition zones were measured with a millimetric ruler. Interpretation of zone sizes by references of the manufacturer. Quality control organisms used were ATCC strains number 25923.
(§4) MRSA. Ten (10) strains of MRSA obtained as described above were tested along with an S. aureus wild type (WT) strain (ATCC25923).

S. aureus = test: Antibiotic assay (resazurin, Example 1), S. aureus strains of Table 3; type: cell-based, Staphylococcus aureus; conditions: Staphylococcus aureus
From the text: as §1, §2

[2] = system: S. aureus wild type strain (ATCC 25923); test: Antibiotic assay (resazurin, Example 1), S. aureus wild type; type: cell-based, Staphylococcus aureus; conditions: Staphylococcus aureus
Protocol: as §1, §2, §4

Corynebacterium jeikeium = test: Antibiotic assay (resazurin, Example 1), Corynebacterium jeikeium; type: cell-based; conditions: Corynebacterium jeikeium
Protocol: as §1, §2, §3

Streptococcus pneumoniae = test: Antibiotic assay (resazurin, Example 1), Streptococcus pneumoniae; type: cell-based; conditions: for IC50 / MIC: Streptococcus pneumoniae
Protocol: as §1, §2, §3

Streptococcus pyogenes = test: Antibiotic assay (resazurin, Example 1), Streptococcus pyogenes; type: cell-based; conditions: Streptococcus pyogenes
Protocol: as §1, §2, §3

Question: What does the source list for `CN[C@H](CC(C)C)C(=O)N[C@H]1C(=O)N[C@@H](CC(N)=O)C(=O)N[C@H]2C(=O)N[C@H]3C(=O)N[C@H](C(=O)N[C@H](C(=O)O)c4cc(O)cc(O)c4-c4cc3ccc4O)[C@H](O)c3ccc(c(Cl)c3)Oc3cc2cc(c3O[C@@H]2O[C@H](CO)[C@@H](O)[C@H](O)[C@H]2O[C@H]2C[C@](C)(N)[C@H](O)[C@H](C)O2)Oc2ccc(cc2Cl)[C@H]1O` [Vancomycin, vancomycin hydrochloride, reference compound]?
Answer: IC50 (Enterococcus faecalis; Ent. Faecalis 14078): 700 ± 100 nM; IC50 (Enterococcus faecalis; Ent. Faecalis 14115): > 10000 nM; MIC (Enterococcus faecalis; read-out: Minimum Inhibitory Concentration (MIC), Ent. Faecalis 14078): 5.59 µM; MIC (Enterococcus faecalis; read-out: Minimum Inhibitory Concentration (MIC), Ent. Faecalis 14115): > 10 µM; IC50 (S. epidermidis; S. epidermidis 14069): 800 ± 100 nM; IC50 (S. epidermidis; S. epidermidis 14085): 800 ± 100 nM; IC50 (S. epidermidis; S. epidermidis 14093): 1300 ± 200 nM; IC50 (S. epidermidis; S. epidermidis 14134): 1700 ± 200 nM; IC50 (S. epidermidis; S. epidermidis 14143): 2700 ± 100 nM; MIC (S. epidermidis; read-out: Minimum Inhibitory Concentration (MIC), S. epidermidis 14069): 6.58 µM; MIC (S. epidermidis; read-out: Minimum Inhibitory Concentration (MIC), S. epidermidis 14085): 4 µM; MIC (S. epidermidis; read-out: Minimum Inhibitory Concentration (MIC), S. epidermidis 14093): 8.38 µM; MIC (S. epidermidis; read-out: Minimum Inhibitory Concentration (MIC), S. epidermidis 14134): 11.4 µM; MIC (S. epidermidis; read-out: Minimum Inhibitory Concentration (MIC), S. epidermidis 14143): > 12.5 µM; IC50 ([1]; MRSA1): 80 ± 10 nM; IC50 ([1]; MRSA2): 80 ± 10 nM; IC50 ([1]; MRSA3): 64 ± 7 nM; IC50 ([1]; MRSA4): 69 ± 9 nM; IC50 ([1]; MRSA5): 62 ± 6 nM; IC50 ([1]; MRSA6): 80 ± 10 nM; IC50 ([1]; MRSA7): 80 ± 10 nM; IC50 ([1]; MRSA8): 80 ± 10 nM; IC50 ([1]; MRSA9): 80 ± 10 nM; IC50 ([1]; MRSA10): 59 ± 6 nM; MIC ([1]; read-out: Minimum Inhibitory Concentration (MIC), MRSA1): 0.12 µM; MIC ([1]; read-out: Minimum Inhibitory Concentration (MIC), MRSA2): 0.13 µM; MIC ([1]; read-out: Minimum Inhibitory Concentration (MIC), MRSA3): 0.1 µM; MIC ([1]; read-out: Minimum Inhibitory Concentration (MIC), MRSA4): 0.1 µM; MIC ([1]; read-out: Minimum Inhibitory Concentration (MIC), MRSA5): 0.09 µM; MIC ([1]; read-out: Minimum Inhibitory Concentration (MIC), MRSA6): 0.2 µM; MIC ([1]; read-out: Minimum Inhibitory Concentration (MIC), MRSA7): 0.11 µM; MIC ([1]; read-out: Minimum Inhibitory Concentration (MIC), MRSA8): 0.11 µM; MIC ([1]; read-out: Minimum Inhibitory Concentration (MIC), MRSA9): 0.11 µM; MIC ([1]; read-out: Minimum Inhibitory Concentration (MIC), MRSA10): 0.09 µM; IC50 (S. aureus; S. aureus 14094): 280 ± 40 nM; IC50 (S. aureus; S. aureus 14108): 270 ± 40 nM; IC50 (S. aureus; S. aureus 14118): 240 ± 30 nM; IC50 (S. aureus; S. aureus 14154): 280 ± 50 nM; MIC (S. aureus; read-out: Minimum Inhibitory Concentration (MIC), S. aureus 14094): 0.41 µM; MIC (S. aureus; read-out: Minimum Inhibitory Concentration (MIC), S. aureus 14108): 0.44 µM; MIC (S. aureus; read-out: Minimum Inhibitory Concentration (MIC), S. aureus 14118): 0.38 µM; MIC (S. aureus; read-out: Minimum Inhibitory Concentration (MIC), S. aureus 14154): 0.45 µM; IC50 ([2]; ATCC25923): 400 ± 200 nM; MIC ([2]; ATCC25923, read-out: Minimum Inhibitory Concentration (MIC)): 1.44 µM; IC50 (Corynebacterium jeikeium): 220 ± 30 nM; MIC (Corynebacterium jeikeium; read-out: Minimum Inhibitory Concentration (MIC)): 0.35 µM; IC50 (Streptococcus pneumoniae; Strep. pneumoniae 14070): 90 ± 40 nM; IC50 (Streptococcus pneumoniae; Strep. pneumoniae 14112): 94 ± 8 nM; IC50 (Streptococcus pneumoniae; Strep. pneumoniae 14138): 130 ± 80 nM; IC50 (Streptococcus pneumoniae; Strep. pneumoniae 14144): > 10000 nM; IC50 (Streptococcus pneumoniae; Strep. pneumoniae 14148): 84 ± 6 nM; MIC (Streptococcus pneumoniae; read-out: Minimum Inhibitory Concentration (MIC), Strep. pneumoniae 14070): 8.37 µM; MIC (Streptococcus pneumoniae; read-out: Minimum Inhibitory Concentration (MIC), Strep. pneumoniae 14112): 0.16 µM; MIC (Streptococcus pneumoniae; read-out: Minimum Inhibitory Concentration (MIC), Strep. pneumoniae 14138): > 10 µM; MIC (Streptococcus pneumoniae; read-out: Minimum Inhibitory Concentration (MIC), Strep. pneumoniae 14144): > 10 µM; MIC (Streptococcus pneumoniae; read-out: Minimum Inhibitory Concentration (MIC), Strep. pneumoniae 14148): 0.2 µM; activity against Streptococcus pneumoniae strain 14138 (Streptococcus pneumoniae; in words): had an activity; IC50 (Streptococcus pyogenes; Strep. pyogenes 14149): 117 ± 9 nM; IC50 (Streptococcus pyogenes; Strep. pyogenes 14152): 80 ± 20 nM; MIC (Streptococcus pyogenes; read-out: Minimum Inhibitory Concentration (MIC), Strep. pyogenes 14149): 0.17 µM; MIC (Streptococcus pyogenes; read-out: Minimum Inhibitory Concentration (MIC), Strep. pyogenes 14152): 3.25 µM

Reference: patent US9499509B2, “Dihydrochalcone derivatives and their use as antibiotic agents” (UNIVERSITÉ DU QUÉBEC À CHICOUTIMI, priority 2012, dated 2016)
